Laboratory results reported in US20250295748A1 (priority 2020, published 2025).
*1 amine or outer side, *2 acyl side, *3 side chain or, on linkers, in order; H or OH if unused. Where a SMILES comes first, the peptide text is derived from it. Bridges are numbered along the chain shown (N, C = ends). [ ]: non-standard residue; d: D form. X1 = CC(C)CCCCCCCCC[C@H](CC(=O)[*:1])O[*:2]

Target: Bovine Serum Albumin (BSA) (Bos taurus, UniProt P02769)
Experiment: Thermal shift assay (SYPRO-Orange) of BSA
Type: biochemical
Settings: FIG. 8, BSA 0.1 mg/ml, 1×PBS

Sequence of Bovine Serum Albumin (BSA) (P02769 25-607): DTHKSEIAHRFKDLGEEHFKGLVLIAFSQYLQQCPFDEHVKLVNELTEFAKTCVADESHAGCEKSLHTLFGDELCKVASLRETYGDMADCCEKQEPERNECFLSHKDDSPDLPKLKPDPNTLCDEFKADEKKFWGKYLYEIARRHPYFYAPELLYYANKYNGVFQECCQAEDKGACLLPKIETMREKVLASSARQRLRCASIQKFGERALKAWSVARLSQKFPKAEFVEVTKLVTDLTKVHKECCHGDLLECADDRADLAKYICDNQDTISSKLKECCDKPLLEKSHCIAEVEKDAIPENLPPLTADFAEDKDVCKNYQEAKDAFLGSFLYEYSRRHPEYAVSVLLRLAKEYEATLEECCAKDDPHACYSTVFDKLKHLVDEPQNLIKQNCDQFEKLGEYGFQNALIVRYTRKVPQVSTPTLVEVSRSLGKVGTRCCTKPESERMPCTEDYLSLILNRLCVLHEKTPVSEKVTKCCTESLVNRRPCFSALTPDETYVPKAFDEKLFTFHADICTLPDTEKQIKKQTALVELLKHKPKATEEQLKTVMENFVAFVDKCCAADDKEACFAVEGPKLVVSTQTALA

`CC(C)CCCCCCCCC[C@@H]1CC(=O)N[C@@H](CCC(=O)O)C(=O)N[C@@H](CC(C)C)C(=O)N[C@H](CC(C)C)C(=O)N[C@@H](C(C)C)C(=O)N[C@@H](CC(=O)O)C(=O)N[C@H](CC(C)C)C(=O)N[C@@H](CC(C)C)C(=O)O1` [Surfactin] (EL[dL]VD[dL]L; linker N-C via X1) was tested, and the “denaturing activity against BSA (decrease in Tm vs concentration)” value was “potent at denaturing BSA but less than 277-SEC”.
